Test results published in patent US12226405B2, “Compounds and compositions for inhibiting the activity of HIF2-alpha and their methods of use” (Novartis AG, priority 2020, dated 2025).

Legend:
[1] = tested on: HIF2α-regulated expression of the endogenous target gene hEGLN3 in 786-O cells; experiment: Cellular iScript assay for HIF2α (quantitative RT-PCR of hEGLN3); type: cell-based, human; settings: Homo sapiens, 786-0, 48 hours incubation
How it was run: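 786-O cells were exposed to eleven 2-fold compound dilutions for 48 h at 37° C. Lysates underwent one-step TaqMan qRT-PCR for hEGLN3 with beta-actin as reference; 2^(−ΔΔCt) versus DMSO, as % of control, was fit with a four-parameter model to give IC50.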

[2] = target: HIF2α PAS-B domain (236-350, biotinylated on the N-terminus) (Homo sapiens (Human), UniProt Q99814)
HIF2α PAS-B domain (236-350, biotinylated on the N-terminus), sequence (Q99814 236-350): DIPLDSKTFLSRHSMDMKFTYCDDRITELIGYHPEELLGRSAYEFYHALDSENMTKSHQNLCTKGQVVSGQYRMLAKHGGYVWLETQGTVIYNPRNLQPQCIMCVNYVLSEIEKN
Description: The assay buffer contained 50 mM Tris-HCl pH7 (Sigma), 20 mM NaCl (Fluka), 0.02% BSA (Sigma), 0.005% Triton X-100 (Pierce) and 1 mM DTT (Fluka). After a 30 min incubation period, 5 μL Streptavidin PVT SPA Beads (Perkin Elmer) at 1.2 mg/mL, diluted in the buffer, were added.

| Compound | IC50 [1] [nM] | IC50 [2] [nM] |
| --- | --- | --- |
| FC(F)OC1=CC(C(F)(F)F)=CN2C[C@@]3(CCC(F)(F)c4c3ccnc4Cl)N=C12 [Example 31, (S)-1′-chloro-8-(difluoromethoxy)-8′,8′-difluoro-6-(trifluoromethyl)-7′,8′-dihydro-3H,6′H-spiro[imidazo[1,2-a]pyridine-2,5′-isoquinoline]] | 37 | 9 |
| FC(F)OC1=CC(C(F)(F)F)=CN2C[C@@]3(CCOc4cc(C(F)(F)F)ccc43)N=C12 [Example 44, (S)-8′-(difluoromethoxy)-6′,7-bis(trifluoromethyl)-3′H-spiro[chroman-4,2′-imidazo[1,2-a]pyridine]] | 65 | 13 |
